Like-named read-outs stand apart in the source and are kept apart here.
How the values were obtained:
[1] = target: T1, human recombinant adrenergic α1D receptor (Homo sapiens, UniProt P25100); experiment: Adrenergic α1D radioligand binding ([3H]Prozosin); settings: read-out: Adrenergic (1 μM) α1D, percent inhibition of specific binding
T1 construct: expressed in transfected cells; host or cells: HEK-293 cells
T1 sequence (P25100 1-572): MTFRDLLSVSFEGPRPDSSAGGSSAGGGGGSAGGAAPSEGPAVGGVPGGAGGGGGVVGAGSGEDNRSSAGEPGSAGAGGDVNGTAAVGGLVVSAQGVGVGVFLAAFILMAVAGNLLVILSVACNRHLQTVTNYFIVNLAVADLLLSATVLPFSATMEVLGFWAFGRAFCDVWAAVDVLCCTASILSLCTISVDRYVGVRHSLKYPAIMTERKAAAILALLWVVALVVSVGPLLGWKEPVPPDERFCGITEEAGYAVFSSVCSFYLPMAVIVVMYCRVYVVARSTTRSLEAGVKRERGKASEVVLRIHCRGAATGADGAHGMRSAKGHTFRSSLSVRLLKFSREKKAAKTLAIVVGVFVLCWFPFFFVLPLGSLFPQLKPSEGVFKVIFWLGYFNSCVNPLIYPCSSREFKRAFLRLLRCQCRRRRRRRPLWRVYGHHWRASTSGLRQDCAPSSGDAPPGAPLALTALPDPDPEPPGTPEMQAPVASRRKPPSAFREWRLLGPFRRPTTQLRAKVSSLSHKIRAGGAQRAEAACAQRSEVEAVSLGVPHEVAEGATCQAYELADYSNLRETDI
Protocol: To evaluate in radioligand binding assays the activity of compounds of the invention, human recombinant adrenergic α1D receptor expressed in human embryonic kidney (HEK-293) cells (Kenny, B. A. et al. Br. J. Pharmacol. 115(6):981, 1995) in a 50 mM Tris-HCl buffer, pH 7.4, was used. Compounds of invention were incubated with 0.6 nM [^3H]Prozosin for 60 minutes at 25° C. Non-specific binding was estimated in the presence of 10 μM phentolamine. Receptor proteins were filtered and washed, the filters were then counted to determine [^3H]Prozosin specifically bound. Compounds were screened at 1 μM or lower, using 1% DMSO as vehicle. Biochemical assay results are presented as the percent inhibition of specific binding in Table 6.

[2] = target: T2, human recombinant serotonin (5-Hydroxytryptamine) 5-HT6 receptor (Homo sapiens, UniProt P50406); experiment: Serotonin 5-HT6 radioligand binding ([3H]LSD); settings: read-out: Serotonin (1 μM) 5-HT6, percent inhibition of specific binding
T2 construct: expressed in transfected cells; host or cells: human HeLa cells
T2 sequence (P50406 whole entry): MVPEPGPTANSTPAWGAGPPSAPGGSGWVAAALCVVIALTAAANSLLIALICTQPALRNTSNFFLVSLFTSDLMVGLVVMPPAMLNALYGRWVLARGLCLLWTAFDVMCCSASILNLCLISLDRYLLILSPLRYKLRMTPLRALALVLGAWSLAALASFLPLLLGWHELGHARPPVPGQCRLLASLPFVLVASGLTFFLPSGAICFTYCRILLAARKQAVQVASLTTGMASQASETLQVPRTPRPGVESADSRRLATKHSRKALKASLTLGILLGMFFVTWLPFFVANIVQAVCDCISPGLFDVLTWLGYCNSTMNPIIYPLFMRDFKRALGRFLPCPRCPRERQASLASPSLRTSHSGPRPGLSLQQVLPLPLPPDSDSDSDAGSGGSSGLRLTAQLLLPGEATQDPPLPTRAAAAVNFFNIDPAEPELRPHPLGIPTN
Protocol: To evaluate in radioligand binding assays the activity of compounds of the invention, human recombinant serotonin (5-Hydroxytryptamine) 5-HT6 receptor expressed in human HeLa cells (Monsma, F. J. Jr. et al., Mol. Pharmacol. 43:320, 1993) in a modified Tris-HCl buffer (50 mM Tris-HCl, pH 7.4, 150 mM NaCl, 2 mM Ascorbic Acid, 0.001% BSA) was used. Compounds of the invention were incubated with 1.5 nM [3H]Lysergic acid diethylamide (LSD) for 120 minutes at 37° C. Non-specific binding was estimated in the presence of 5 μM Serotonin (5-HT). Receptor proteins were filtered and washed, the filters were then counted to determine [3H]LSD specifically bound. Compounds were screened at 1 μM or lower, using 1% DMSO as vehicle. Biochemical assay results are presented as the percent inhibition of specific binding in Table 7.

[3] = target: T3, human recombinant dopamine D2L receptor (Homo sapiens, UniProt P14416); experiment: Dopamine D2L radioligand binding ([3H]Spiperone); settings: read-out: Dopamine (1 μM) D2L, percent inhibition of specific binding
T3 construct: expressed in transfected cells; host or cells: CHO cells
T3 sequence (P14416 whole entry): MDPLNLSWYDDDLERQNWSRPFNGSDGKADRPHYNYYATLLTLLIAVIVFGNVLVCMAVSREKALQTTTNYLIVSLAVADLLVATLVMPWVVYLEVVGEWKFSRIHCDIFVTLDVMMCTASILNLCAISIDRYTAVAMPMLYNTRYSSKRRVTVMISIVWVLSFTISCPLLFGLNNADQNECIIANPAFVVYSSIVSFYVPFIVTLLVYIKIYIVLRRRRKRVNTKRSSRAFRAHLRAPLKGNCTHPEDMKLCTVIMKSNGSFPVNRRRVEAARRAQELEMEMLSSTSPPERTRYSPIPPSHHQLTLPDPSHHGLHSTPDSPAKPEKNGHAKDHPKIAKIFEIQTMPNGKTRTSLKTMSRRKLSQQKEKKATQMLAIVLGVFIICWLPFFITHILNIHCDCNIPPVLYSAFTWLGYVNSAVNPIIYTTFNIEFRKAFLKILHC
Protocol: To evaluate in radioligand binding assays the activity of compounds of the invention, human recombinant dopamine D2L receptor expressed in Chinese hamster ovary (CHO) cells (Grandy, D. K. et al. Proc. Natl. Acad. Sci. USA. 86:9762, 1989; Hayes, G. et al., Mol. Endocrinol. 6:920, 1992) in a modified Tris-HCl buffer (50 mM Tris-HCl, pH 7.4, 1.4 mM Ascorbic Acid, 0.001% BSA, 150 mM NaCl) was used. Compounds of the invention were incubated with 0.16 nM [^3H]Spiperone for 120 minutes at 25° C. Non-specific binding was estimated in the presence of 10 μM Haloperidol. Receptor proteins were filtered and washed, the filters were then counted to determine [^3H]Spiperone specifically bound. Compounds were screened at 1 μM or lower, using 1% DMSO as vehicle. Biochemical assay results are presented as the percent inhibition of specific binding in Table 6.

[4] = target: T4, human recombinant histamine H1 receptor (Homo sapiens, UniProt P35367); experiment: Histamine H1 radioligand binding ([3H]Pyrilamine); settings: read-out: Histamine Binding (1 μM) H1, percent inhibition of specific binding
T4 construct: expressed in transfected cells; host or cells: CHO cells
T4 sequence (P35367 whole entry): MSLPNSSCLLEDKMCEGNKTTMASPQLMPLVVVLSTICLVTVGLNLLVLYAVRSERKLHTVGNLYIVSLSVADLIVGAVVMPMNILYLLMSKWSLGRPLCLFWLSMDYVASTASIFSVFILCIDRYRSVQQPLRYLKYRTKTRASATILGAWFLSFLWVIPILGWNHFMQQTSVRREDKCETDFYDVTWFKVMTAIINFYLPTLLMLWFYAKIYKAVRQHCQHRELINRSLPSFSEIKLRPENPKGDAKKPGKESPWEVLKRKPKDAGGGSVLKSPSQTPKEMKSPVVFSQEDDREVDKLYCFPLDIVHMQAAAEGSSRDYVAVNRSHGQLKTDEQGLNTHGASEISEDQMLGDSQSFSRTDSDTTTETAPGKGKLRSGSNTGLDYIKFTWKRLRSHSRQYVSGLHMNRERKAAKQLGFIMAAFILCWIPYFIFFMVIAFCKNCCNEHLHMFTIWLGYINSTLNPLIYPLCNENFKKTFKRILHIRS
Protocol: To evaluate in radioligand binding assays the activity of compounds of the invention, human recombinant histamine H1 receptor expressed in Chinese hamster ovary (CHO) cells (De Backer, M. D. et al., Biochem. Biophys. Res. Comm. 197(3):1601, 1993) in a modified Tris-HCl buffer (50 mM Tris-HCl, pH 7.4, 2 mM MgCl2, 100 mM NaCl, 250 mM Sucrose) was used. Compounds of the invention were incubated with 1.2 nM [^3H]Pyrilamine for 180 minutes at 25° C. Non-specific binding was estimated in the presence of 1 μM pyrilamine. Receptor proteins were filtered and washed, the filters were then counted to determine [^3H]Pyrilamine specifically bound. Compounds were screened at 1 μM, using 1% DMSO as vehicle. Biochemical assay results are presented as the percent inhibition of specific binding in Table 5.

[5] = target: T5, human recombinant histamine H2 receptor (Homo sapiens, UniProt P25021); experiment: Histamine H2 radioligand binding ([125I]aminopotentidine); settings: read-out: Histamine Binding (1 μM) H2, percent inhibition of specific binding
T5 construct: expressed in transfected cells; host or cells: CHO-K1 cells
T5 sequence (P25021 whole entry): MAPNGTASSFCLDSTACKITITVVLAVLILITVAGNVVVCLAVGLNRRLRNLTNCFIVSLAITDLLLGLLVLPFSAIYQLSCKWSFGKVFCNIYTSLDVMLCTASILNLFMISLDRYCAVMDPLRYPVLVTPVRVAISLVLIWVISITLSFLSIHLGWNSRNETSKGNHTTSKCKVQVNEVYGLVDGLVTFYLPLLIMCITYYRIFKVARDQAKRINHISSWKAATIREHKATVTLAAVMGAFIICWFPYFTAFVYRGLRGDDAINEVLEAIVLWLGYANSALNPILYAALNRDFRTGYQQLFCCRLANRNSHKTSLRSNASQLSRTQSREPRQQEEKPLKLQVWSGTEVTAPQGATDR
Protocol: To evaluate in radioligand binding assays the activity of compounds of the invention, human recombinant histamine H2 receptor expressed in Chinese hamster ovary (CHO) K1 cells (Ruat, M., Proc. Natl. Acad. Sci. USA. 87(5):1658, 1990) in a 50 mM Phosphate buffer, pH 7.4 was used. Compounds of the invention were incubated with 0.1 nM [^125I]aminopotentidine for 120 minutes at 25° C. Non-specific binding was estimated in the presence of 3 μM Tiotidine. Receptor proteins were filtered and washed, the filters were then counted to determine [^125I]Aminopotentidine specifically bound. Compounds were screened at 1 μM, using 1% DMSO as vehicle. Biochemical assay results are presented as the percent inhibition of specific binding in Table 5.

[6] = compound at 1 μM, HEK-293 cells

SMILES	inhibition at 1 µM [1, 6] [%]	inhibition at 1 µM ([2]; compound at 1 μM, HeLa cells) [%]	inhibition at 1 µM ([3]; compound at 1 μM, CHO cells) [%]	inhibition at 1 µM ([4]; compound at 1 μM, CHO cells) [%]	inhibition at 1 µM ([5]; compound at 1 μM, CHO K1 cells) [%]	inhibition at 1 µM [1] [%]	inhibition at 1 µM [2] [%]	inhibition at 1 µM [3] [%]	inhibition at 1 µM [4] [%]	inhibition at 1 µM [5] [%]
Cc1ccc2c(c1)c1c(n2CCN)CCN(C)C1 [CD62, 2-(1,2,3,4-tetrahydro-2,8-dimethylpyrido[4,3-b]indol-5-yl)ethanamine]	34	12	26	44	65	–	–	–	–	–
CN1CCc2c(c3cc(Cl)ccc3n2CCCO)C1 [CD87, 3-(8-chloro-2-methyl-3,4-dihydro-1H-pyrido[4,3-b]indol-5(2H)-yl)propan-1-ol]	75	35	10	97	18	–	–	–	–	–
CN1CCc2c(c3cc(Cl)ccc3n2CCBr)C1 [CD88, 5-(2-bromoethyl)-8-chloro-2-methyl-2,3,4,5-tetrahydro-1H-pyrido[4,3-b]indole]	–	–	–	–	–	94	87	27	98	64
CN1CCc2c(c3cc(Cl)ccc3n2CCO)C1 [CD89, 2-(8-chloro-2-methyl-3,4-dihydro-1H-pyrido[4,3-b]indol-5(2H)-yl)ethanol]	69	36	0	92	14	–	–	–	–	–
Cc1ccc2c(c1)c1c(n2CCO)CCN(C)C1 [CD90, 2-(2,8-dimethyl-3,4-dihydro-1H-pyrido[4,3-b]indol-5(2H)-yl)ethanol]	23	7	-8	60	11	–	–	–	–	–
Cc1ccc2c(c1)c1c(n2CCBr)CCN(C)C1 [CD91, 5-(2-bromoethyl)-2,8-dimethyl-2,3,4,5-tetrahydro-1H-pyrido[4,3-b]indole]	88	88	15	98	65	–	–	–	–	–
Cc1ccc2c(c1)c1c(n2CCC#N)CCN(C)C1 [CD92, 3-(2,8-dimethyl-3,4-dihydro-1H-pyrido[4,3-b]indol-5(2H)-yl)propanenitrile]	78	47	3	99	8	–	–	–	–	–
CN1CCc2c(c3cc(Cl)ccc3n2CCC#N)C1 [CD94, 3-(8-chloro-2-methyl-3,4-dihydro-1H-pyrido[4,3-b]indol-5(2H)-yl)propanenitrile]	74	40	1	97	2	–	–	–	–	–
CCOC(=O)Cn1c2c(c3cc(Cl)ccc31)CN(C)CC2 [Compound 10, ethyl 2-(8-chloro-1,2,3,4-tetrahydro-2-methylpyrido[4,3-b]indol-5-yl)acetate]	50	69	12	99	28	–	–	–	–	–
CC(C)OC(=O)Cn1c2c(c3cc(Cl)ccc31)CN(C)CC2 [Compound 11, isopropyl 2-(8-chloro-1,2,3,4-tetrahydro-2-methylpyrido[4,3-b]indol-5-yl)acetate]	38	66	10	101	7	–	–	–	–	–
CN1CCc2c(c3cc(Cl)ccc3n2CC(=O)OC(C)(C)C)C1 [Compound 12, tert-butyl 2-(8-chloro-1,2,3,4-tetrahydro-2-methylpyrido[4,3-b]indol-5-yl)acetate]	13	67	23	101	40	–	–	–	–	–
CN1CCc2c(c3cc(Cl)ccc3n2CC(=O)OCc2ccccc2)C1 [Compound 13, benzyl 2-(8-chloro-1,2,3,4-tetrahydro-2-methylpyrido[4,3-b]indol-5-yl)acetate]	55	101	38	96	51	–	–	–	–	–
CN1CCc2c(c3cc(Cl)ccc3n2CC(=O)OCC2CCCCC2)C1 [Compound 14, cyclohexylmethyl 2-(8-chloro-1,2,3,4-tetrahydro-2-methylpyrido[4,3-b]indol-5-yl)acetate]	72	106	31	98	89	–	–	–	–	–
CN1CCc2c(c3cc(Cl)ccc3n2CC(=O)OC2CCCC2)C1 [Compound 15]	58	96	26	99	47	–	–	–	–	–
CC(C)OC(=O)CCn1c2c(c3cc(Cl)ccc31)CN(C)CC2 [Compound 17, isopropyl 3-(8-chloro-1,2,3,4-tetrahydro-2-methylpyrido[4,3-b]indol-5-yl)propanoate]	73	99	13	96	64	–	–	–	–	–
CN1CCc2c(c3cc(Cl)ccc3n2CCC(=O)OCc2ccccc2)C1 [Compound 19, benzyl 3-(8-chloro-1,2,3,4-tetrahydro-2-methylpyrido[4,3-b]indol-5-yl)propanoate]	83	100	31	101	81	–	–	–	–	–

— patent US9115137B2, “2,3,4,5-tetrahydro-1H-pyrido[4,3-B]indole compounds and methods of use thereof” (priority 2008, dated 2015)
